Drawing on PMC4774911, “Biochemical Screening of Five Protein Kinases from Plasmodium falciparum against 14,000 Cell-Active Compounds” (PLoS ONE, 2016), this text covers Kd for 1 molecule.

Several values for one entry are separate records, joined by “and”; a condition that tells them apart may be missing. Identical values can stand only once.

Common to all, as to experiment: biochemical
What all share (set-up): endogenous in cells; host or cells: K562 cell extract; species or system K562 (extract); replicate k of n = 2 (each experiment ID is one independent experiment; two experiment IDs per compound)
Holding throughout (conditions): read-out: KDapp

The target of test [1] is T1, IKBKE (Homo sapiens, UniProt Q14164).
T1 sequence (Q14164 1-716): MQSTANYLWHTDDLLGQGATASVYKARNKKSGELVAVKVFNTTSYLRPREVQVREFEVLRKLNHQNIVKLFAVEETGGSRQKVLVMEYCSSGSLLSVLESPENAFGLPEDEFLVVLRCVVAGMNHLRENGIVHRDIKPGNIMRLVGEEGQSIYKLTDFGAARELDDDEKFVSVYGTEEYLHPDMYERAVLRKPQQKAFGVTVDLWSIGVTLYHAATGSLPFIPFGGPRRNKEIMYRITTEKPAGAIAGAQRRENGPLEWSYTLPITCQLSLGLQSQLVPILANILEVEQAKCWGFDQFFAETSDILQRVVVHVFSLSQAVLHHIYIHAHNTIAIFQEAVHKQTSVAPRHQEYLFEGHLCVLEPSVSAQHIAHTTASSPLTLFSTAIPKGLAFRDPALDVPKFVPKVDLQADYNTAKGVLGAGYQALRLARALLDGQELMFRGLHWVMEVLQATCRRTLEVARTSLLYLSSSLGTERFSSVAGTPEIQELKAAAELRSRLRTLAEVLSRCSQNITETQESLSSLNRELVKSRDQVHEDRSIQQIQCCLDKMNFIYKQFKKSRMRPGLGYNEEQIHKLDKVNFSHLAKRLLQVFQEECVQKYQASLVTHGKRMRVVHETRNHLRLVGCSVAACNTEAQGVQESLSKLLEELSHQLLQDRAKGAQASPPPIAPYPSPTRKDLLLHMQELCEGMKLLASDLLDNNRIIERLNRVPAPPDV

Test [2] addresses CDC2 (Homo sapiens, UniProt P06493).
Test [3] deals with T2, ULK1 (Homo sapiens, UniProt O75385).
T2 sequence (O75385 1-1050): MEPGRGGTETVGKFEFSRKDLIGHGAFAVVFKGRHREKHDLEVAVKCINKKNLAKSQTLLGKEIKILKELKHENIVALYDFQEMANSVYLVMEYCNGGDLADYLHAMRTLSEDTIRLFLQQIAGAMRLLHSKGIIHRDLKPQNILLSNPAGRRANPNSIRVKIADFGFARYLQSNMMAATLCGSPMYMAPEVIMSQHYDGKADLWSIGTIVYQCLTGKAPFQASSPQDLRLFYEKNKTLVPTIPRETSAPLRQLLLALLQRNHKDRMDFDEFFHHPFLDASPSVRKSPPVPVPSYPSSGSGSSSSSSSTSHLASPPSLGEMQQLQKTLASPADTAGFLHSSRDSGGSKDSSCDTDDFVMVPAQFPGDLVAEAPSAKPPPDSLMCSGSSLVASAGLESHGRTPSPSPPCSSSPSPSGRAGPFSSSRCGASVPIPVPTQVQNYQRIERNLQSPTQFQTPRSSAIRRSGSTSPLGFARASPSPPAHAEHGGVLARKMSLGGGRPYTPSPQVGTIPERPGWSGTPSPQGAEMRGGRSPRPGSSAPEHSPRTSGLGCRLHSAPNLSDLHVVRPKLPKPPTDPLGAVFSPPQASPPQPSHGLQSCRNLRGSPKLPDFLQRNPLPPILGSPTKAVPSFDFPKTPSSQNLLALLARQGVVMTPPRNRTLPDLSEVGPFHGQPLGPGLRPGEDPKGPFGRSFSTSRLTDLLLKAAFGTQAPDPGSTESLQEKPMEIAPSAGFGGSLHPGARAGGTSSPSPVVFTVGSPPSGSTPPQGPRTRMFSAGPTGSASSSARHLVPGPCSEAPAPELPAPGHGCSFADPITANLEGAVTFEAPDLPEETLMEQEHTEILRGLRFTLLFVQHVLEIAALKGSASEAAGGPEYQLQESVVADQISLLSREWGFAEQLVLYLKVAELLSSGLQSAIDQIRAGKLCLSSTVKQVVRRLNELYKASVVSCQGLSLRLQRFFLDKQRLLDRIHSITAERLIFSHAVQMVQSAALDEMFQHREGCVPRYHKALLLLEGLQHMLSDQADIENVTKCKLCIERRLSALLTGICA

The target of test [4] is T3, STK4 (Homo sapiens, UniProt Q13043).
T3 sequence (Q13043 1-487): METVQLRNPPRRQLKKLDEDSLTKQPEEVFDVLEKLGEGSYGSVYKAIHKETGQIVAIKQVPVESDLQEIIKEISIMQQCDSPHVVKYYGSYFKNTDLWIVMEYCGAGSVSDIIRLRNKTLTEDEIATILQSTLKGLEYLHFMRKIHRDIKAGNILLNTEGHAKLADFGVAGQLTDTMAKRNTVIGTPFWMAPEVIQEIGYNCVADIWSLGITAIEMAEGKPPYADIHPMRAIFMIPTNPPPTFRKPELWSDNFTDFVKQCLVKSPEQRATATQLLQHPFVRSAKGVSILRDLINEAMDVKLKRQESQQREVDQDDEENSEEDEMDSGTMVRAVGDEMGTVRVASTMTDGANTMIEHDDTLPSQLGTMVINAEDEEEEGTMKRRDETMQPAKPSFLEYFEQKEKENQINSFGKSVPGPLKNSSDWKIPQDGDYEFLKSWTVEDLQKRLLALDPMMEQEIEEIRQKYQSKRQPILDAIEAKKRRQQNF

Chain of CDC2 (P06493 whole entry): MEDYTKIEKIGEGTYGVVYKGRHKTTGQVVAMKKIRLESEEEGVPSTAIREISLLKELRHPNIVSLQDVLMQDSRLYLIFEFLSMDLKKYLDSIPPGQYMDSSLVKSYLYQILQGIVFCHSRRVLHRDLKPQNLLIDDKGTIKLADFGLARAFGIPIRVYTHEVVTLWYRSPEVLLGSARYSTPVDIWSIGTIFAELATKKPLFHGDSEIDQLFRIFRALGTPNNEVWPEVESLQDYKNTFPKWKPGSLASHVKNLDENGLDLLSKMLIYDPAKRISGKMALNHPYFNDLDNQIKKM

As for `CN1CCN(c2ccc(Nc3ncc(C#N)c(Nc4ccccc4C(N)=O)n3)cc2)CC1.Cl` [TCMDC-134116], the Kd in test [1] is 954 nM; in test [2] it was 1210 nM; in test [3], 95 nM; in test [4] it was 121 nM and 140 nM.
